“Also recorded” adds a separate entry of the source. Peptide text beside a SMILES is read from it.
Tested on: chick sensory neurons from dorsal root ganglia
Assay: Chick dorsal root ganglion cultures and neurite outgrowth
Format: cell-based
Details: 1 mM concentration; whole DRG explants, forty-eight hours after drug treatment
Method: Dorsal root ganglia were dissected from chick embryos of ten-day gestation. Whole ganglion explants were cultured on thin layer Matrigel-coated 12 well plates with Liebovitz L15 plus high glucose media supplemented with 2 mM glutamine and 10% fetal calf serum, and also containing 10 μM cytosine […] (Ara C) at 37° C. in an environment containing 5% CO2. Twenty-four hours later, the DRGs were treated with various concentrations of nerve growth factor, immunophilin ligands or combinations of NFG plus drugs. Forty-eight hours after drug treatment, the ganglia were visualized under phase contrast or Hoffman Modulation contrast with a Zeiss Axiovert inverted microscope. Photomicrographs of the explants were made, and neurite outgrowth was quantitated. Neurites longer that the DRG diameter were counted as positive, with total number of neurites quantitated per each experimental condition. Three to four DRGs are cultured per well, and each treatment was performed in duplicate.
The maximal increase in the number of processes, their length and branching is quite similar at maximally effective […] of the cyclophilin ligands and of NGF (100 ng/ml). With progressively increasing concentrations of the various drugs, one observes a larger number of processes, more extensive branching and a grater length of individual processes.

Structure (SMILES) | neurotrophic effects (promotion of neurite outgrowth in chick sensory neurons)
CC(=O)N1CCC[C@H]1C(=O)NCC(=O)N1CCC[C@H]1C(=O)N[C@@H](Cc1ccccc1)C(N)=O [compound 1] (Ac-PGPF-NH2) | promotion of neurite outgrowth; also recorded: powerful neurotrophic effects
CC(=O)N1CCC[C@H]1C(=O)N[C@@H](C)C(=O)N1CCC[C@H]1C(=O)N[C@@H](C)C(N)=O [compound 2] (Ac-PAPA-NH2) | promotion of neurite outgrowth; also recorded: potent neurotrophic effects

Reference: US20030068321A1, “Methods of effecting neuronal activity” (Guilford Pharmaceuticals, Inc., priority 2001, published 2003)
